# Data as given in the supplement of paper PMC10307832.
# Tests used:
# Assay in all cases: relative viability (nuclei count vs DMSO), 5 days (fraction); higher = more cells survive
# Carboplatin + Navitoclax = compound: C1CC(C1)(C(=O)O)C(=O)O.[NH2-].[NH2-].[Pt+2] [Carboplatin] + CC1(C)CCC(c2ccc(Cl)cc2)=C(CN2CCN(c3ccc(C(=O)NS(=O)(=O)c4ccc(N[C@H](CCN5CCOCC5)CSc5ccccc5)c(S(=O)(=O)C(F)(F)F)c4)cc3)CC2)C1 [Navitoclax] (partner 0.5 µM)
# Method in brief: (§1)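 Nuclei were stained with Hoechst during a one-step fixation (final 0.05% Triton X-100, 1% formaldehyde, 1 ug/ml Hoechst) carried out 5 days after dosing, then counted on 4× images. The cells, lung cancer lines in 1536-well plates, had been dosed by pin tool the day after seeding with one drug alone or a fixed anchor-drug dose plus five library-drug doses (not always all listed) in √10 steps. Relative viability is the nuclei count in treated wells divided by that in vehicle wells, and each value is the median of duplicate plates.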
# GSK126 + Bortezomib = compound: CC[C@H](C)N1C=C(C2=C(C=C(C=C21)C3=CN=C(C=C3)N4CCNCC4)C(=O)NCC5=C(C=C(NC5=O)C)C)C [GSK126] + CC(C)C[C@H](NC(=O)[C@H](Cc1ccccc1)NC(=O)c1cnccn1)B(O)O [Bortezomib] (partner 0.002 µM)
# Method in brief: as §1
# Carboplatin + Lapatinib = compound: C1CC(C1)(C(=O)O)C(=O)O.[NH2-].[NH2-].[Pt+2] [Carboplatin] + CS(=O)(=O)CCNCc1ccc(-c2ccc3ncnc(Nc4ccc(OCc5cccc(F)c5)c(Cl)c4)c3c2)o1 [Lapatinib] (partner 2 µM)
# Method in brief: as §1
# GSK126 + Linsitinib = compound: CC[C@H](C)N1C=C(C2=C(C=C(C=C21)C3=CN=C(C=C3)N4CCNCC4)C(=O)NCC5=C(C=C(NC5=O)C)C)C [GSK126] + C[C@]1(O)C[C@@H](c2nc(-c3ccc4ccc(-c5ccccc5)nc4c3)c3c(N)nccn32)C1 [Linsitinib] (partner 1 µM)
# Method in brief: as §1
Cell Line,relative viability (Carboplatin + Navitoclax; first compound 0.08 µM),relative viability (Carboplatin + Navitoclax; first compound 0.253 µM),relative viability (Carboplatin + Navitoclax; first compound 0.8 µM),relative viability (Carboplatin + Navitoclax; first compound 2.53 µM),relative viability (Carboplatin + Navitoclax; first compound 8 µM),relative viability (GSK126 + Bortezomib; first compound 0.08 µM),relative viability (GSK126 + Bortezomib; first compound 0.253 µM),relative viability (GSK126 + Bortezomib; first compound 0.8 µM),relative viability (GSK126 + Bortezomib; first compound 2.53 µM),relative viability (GSK126 + Bortezomib; first compound 8 µM),relative viability (Carboplatin + Lapatinib; first compound 0.08 µM),relative viability (Carboplatin + Lapatinib; first compound 0.253 µM),relative viability (Carboplatin + Lapatinib; first compound 0.8 µM),relative viability (Carboplatin + Lapatinib; first compound 2.53 µM),relative viability (Carboplatin + Lapatinib; first compound 8 µM),relative viability (GSK126 + Linsitinib; first compound 0.08 µM),relative viability (GSK126 + Linsitinib; first compound 0.253 µM),relative viability (GSK126 + Linsitinib; first compound 0.8 µM),relative viability (GSK126 + Linsitinib; first compound 2.53 µM),relative viability (GSK126 + Linsitinib; first compound 8 µM)
NCI-H322M,1.26,1.22,1.18,1.13,1.05,1.12,1.26,1.27,1.25,1.26,0.653,0.639,0.55,0.561,0.609,0.953,0.949,0.884,1.01,0.937
LCLC-97TM1,0.401,–,0.424,0.391,0.33,0.563,0.586,0.671,0.719,0.575,0.891,–,1.02,1.08,1,0.164,–,0.179,0.225,0.204
NCI-H596,1,0.952,0.803,0.74,0.695,1.09,0.982,–,1.14,0.731,1.21,1,1.07,0.943,0.886,1.02,0.99,1.03,1.16,1.15
NCI-H1792,0.887,0.682,0.667,0.618,0.567,0.973,1.02,0.991,0.91,0.948,1,1.02,0.941,0.817,0.8,0.561,0.639,0.51,0.571,0.498
NCI-H1755,1.02,1.01,1.04,1.02,0.891,0.979,0.978,1.05,0.839,0.922,1.06,1.1,1.11,1.09,0.995,1.01,1.04,1.01,0.967,1.03
H3255,0.658,0.563,0.634,0.471,0.476,0.729,0.731,0.683,0.802,0.879,0.276,0.248,0.269,0.257,0.236,0.99,0.96,0.945,0.893,0.874
NCI-H23,0.887,0.9,0.789,0.835,0.588,1.13,0.96,0.922,1.02,0.95,1.16,1.25,1,1.02,0.783,0.63,0.528,0.442,0.592,0.725
